From patent US20140309188A1, “USE OF PHARMACEUTICAL COMPOSITION COMPRISING DEOXYNUCLEOSIDE AND NUCLEOSIDE FOR TREATMENT OF TUMOR” (priority 2011, published 2014)
Values joined by “and” are separate entries in the source; they are usually repeats but may differ in a detail not shown here. Identical values can stand only once.

How the values were obtained:
Assay type in all cases: cell-based
[1] = system: Human cervical carcinoma Hela; assay: MTT growth inhibition on human cervical carcinoma Hela; details: concentrations same as Example 1
[2] = system: human lung cancer cells PG; assay: MTT growth inhibition on human lung cancer cells PG; details: 48 hours, 60 μL of 10.0 mmol/L solution per 200 μL well, average of three experiments; for inhibition at 10000 µM (stock): Homo sapiens, read-out: Growth inhibition rate (%) on tumor cells PG
Description: (§1) Human hepatoma cells BEL-7402 and human lung cancer cells PG provided by Institute of Biochemistry and Cell Biology, SIBS, CAS were cultured in the culture medium RPMI 1640 comprising 10% fetal bovine serum. The cells in the exponential growth phase were collected, digested with 0.25% trypsin, inoculated to a 96-well plate with each well having 3×10^3 cells, and then cultured in an incubator having 5% CO2 at 37° C. for 24 hours. Each experimental group was provided with 8 wells. 60 μL of a nucleoside solution having a total concentration of 10.0 mmol/L was added to each well, and the culture medium was replenished to ensure each well to have a volume of 200 μL. The control group was administered with 5-FU having the same concentration as the nucleoside solution. The obtained cells were diluted with serum-free medium and filtered with sterile microporous membrane having an aperture size of 0.22 μm. 48 hours later, cell morphology was observed and photographed by an inverted microscope. Thereafter, 20 μL of MTT solution having a concentration of 5 mg/mL was added to each well of the 96-well plate, which was further cultured in the incubator having 5% CO2 at 37° C. for 4 hours. After the culture, the supernate in the wells was removed. 150 μL of DMSO was added to each well. The 96-well plate was shaken for 10 minutes to facilitate the dissolution of the crystals. An automatic microplate reader (Thermo, Multiskan MK3) was employed to measure the absorbancy at 570 nm. Each experimental group was provided with 8 wells, and each experiment was repeated for three times. Table 1 lists the average value of the three experiments.
(§2) Survival rate of tumor cells (%)=measured OD value of experimental wells/OD value of wells of control group
(§3) Growth inhibition rate of tumor cells=100%−Survival rate of tumor cells (%)

[3] = system: Human colon cancer cell line HT-29; assay: MTT growth inhibition on human colon cancer cell line HT-29; details: 48 hours; concentrations same as Example 1 (total 10.0 mmol/L solution, 60 μL per 200 μL well)
Description: as §1, §2, §3
(§4) The experimental groups and the control group were administered with different nucleosides or a combination thereof, as listed in Table 2. Human colon cancer cell line HT-29 was provided by the Institute of Basic Medical Sciences (IBMS) of the Chinese Academy of Medical Sciences (CAMS). The experimental method was the same as that in Example 1. The concentrations of the nucleoside combination, the single deoxynucleoside, and 5-FU are all the same as that in Example 1.

[4] = system: Human pancreatic cancer cell line PANC-1; assay: MTT growth inhibition on human pancreatic cancer cell line PANC-1; details: different dosage ratios of dA, dG, C, total concentration same as Example 1
[5] = system: Human breast cancer cell lines Bcap-37; assay: MTT growth inhibition on human breast cancer cell lines Bcap-37; details: concentrations same as Example 1
Description: as §1, §2, §3
as §4, with “5.” for “2.”, “breast” for “colon”, “lines Bcap-37” for “line HT-29”, “nucleoside,” for “deoxynucleoside,”

[6] = system: Human hepatoma cells BEL-7402; assay: MTT growth inhibition on human hepatoma cells BEL-7402; details: for Growth inhibition rate (%) on Bel-7402: Example 3, concentrations same as Example 1; for inhibition at 10000 µM (stock): Homo sapiens, Bel-7402, read-out: Growth inhibition rate (%) on tumor cells Bel-7402
Description: as §1, with “48 hours later, cell morphology was observed and photographed by an inverted microscope.” left out
as §2, §3
1. Experimental method: The experimental groups and the control group were administered with different nucleosides or a combination thereof, as listed in Table 3. Human hepatoma cells Bel-7402 was provided by Institute of Biochemistry and Cell Biology, SIBS, CAS. The experimental method was the same as that in Example 1. The concentrations of the nucleoside combination, the single nucleoside, and 5-FU are all the same as that in Example 1.

[7] = system: Human gastric cancer cell lines BGC823; assay: MTT growth inhibition on human gastric cancer cell lines BGC823; details: concentrations same as Example 1
Description: as §1, with “48 hours later, cell morphology was observed and photographed by an inverted microscope.” left out
as §2, §3
as §4, with “4.” for “2.”, “gastric” for “colon”, “lines BGC823” for “line HT-29”

[8] = system: Human glioma cell line SHG-44; assay: MTT growth inhibition on human glioma cell line SHG-44; details: concentrations same as Example 1
Description: as §1, with “After the culture, the supernate in the wells was removed. 150 μL of DMSO was added to each well. The 96-well plate was shaken for 10 minutes to facilitate the dissolution of the crystals.” left out, “Each experimental group was provided with 8 wells, and each experiment was repeated for three times. Table 1 lists the average value of the three experiments.” left out
Survival rate of tumor cells (%)=measured OD value of experimental wells/OD value of wells of control group […]

[9] = 48 hours, 60 μL of 10.0 mmol/L solution per 200 μL well, MTT, average of three experiments

SMILES	Growth inhibition rate (%) on HT-29 [3]	Growth inhibition rate (%) on Bcap-37 ([5]; 48 hours)	Growth inhibition rate (%) on Bcap-37 ([5]; 72 hours)	Growth inhibition rate (%) on BGC823 ([7]; 48 hours)	Growth inhibition rate (%) on BGC823 ([7]; 72 hours)	inhibition at 10000 µM (stock) [2]	inhibition at 10000 µM (stock) [6, 9]	also measured
O=c1[nH]cc(F)c(=O)[nH]1 [5-FU, reference compound]	96% and 95% and 91% and 93%	92%	95%	91%	95%			Growth inhibition rate (%) on Hela ([1]; 48 hours): 92%; Growth inhibition rate (%) on Hela ([1]; 72 hours): 96%; Growth inhibition rate (%) on tumor cells PG [2]: 90%; Growth inhibition rate (%) on human pancreatic cancer cell line PANC-1 ([4]; 48 hours): 93%; Growth inhibition rate (%) on human pancreatic cancer cell line PANC-1 ([4]; 72 hours): 95%; Growth inhibition rate (%) on tumor cells Bel-7402 [6, 9]: 91%; Growth inhibition rate (%) on Bel-7402 ([6]; 48 hours): 91%; Growth inhibition rate (%) on Bel-7402 ([6]; 72 hours): 95%; Growth inhibition rate (%) on SHG-44 ([8]; 48 hours): 91%; Growth inhibition rate (%) on SHG-44 ([8]; 72 hours): 96%
Nc1ncnc2c1ncn2[C@@H]1O[C@H](CO)[C@@H](O)[C@H]1O [A, adenosine]						84%	86%	
Nc1ccn([C@@H]2O[C@H](CO)[C@@H](O)[C@H]2O)c(=O)n1 [C, cytidine]		65%	71%			53%	65%	
Nc1nc2c(ncn2[C@@H]2O[C@H](CO)[C@@H](O)[C@H]2O)c(=O)[nH]1 [G, guanosine]						87%	83%	
Cc1cn([C@H]2C[C@H](O)[C@@H](CO)O2)c(=O)[nH]c1=O [T, thymidine]	85%					88%	87%	
O=c1ccn([C@@H]2O[C@H](CO)[C@@H](O)[C@H]2O)c(=O)[nH]1 [U, uridine]		58%	67%			52%	49%	
Nc1ncnc2c1ncn2[C@H]1C[C@H](O)[C@@H](CO)O1 [dA, deoxyadenosine]	86%			89%	91%	94%	96%	
Nc1ccn([C@H]2C[C@H](O)[C@@H](CO)O2)c(=O)n1 [dC, deoxycytidine]	89%					84%	86%	
Nc1nc2c(ncn2[C@H]2C[C@H](O)[C@@H](CO)O2)c(=O)[nH]1 [dG, deoxyguanosine]	91%			85%	90%	96%	95%	Growth inhibition rate (%) on Bel-7402 ([6]; 48 hours): 87%; Growth inhibition rate (%) on Bel-7402 ([6]; 72 hours): 93%
